Experimental data reported in patent publication US11524950B2, “Treatment of immune-related and inflammatory diseases” (Celgene Corporation, priority 2012, dated 2022).
Read-outs that look alike come from different tables or passages of the source.

Columns and labels:
[1] = tested on: BCL-6, IRF-4 and BLIMP-1; test: Transcription factor protein expression by laser scanning cytometry, SLE patient PBMC; type: cell-based, human; details: CD38+ plasmablast/plasma cells, Day 4 and Day 7 SLE patient PBMC
Procedure: Preparation Of Cytospin From Single Cell Suspension And Immunofluorescence Staining for iCyte: A cell suspension of not more than 0.5×10^6 cells/ml of 2% FBS-containing PBS was prepared. Up to 200 μl of this suspension was loaded in each cuvette and spinned at 800 rpm for 3 min. The cuvette and the paper were carefully detached without damaging the fresh cytospin and proceeded with either immediate fixation or drying. Unfixed cytospins were stored for max 2 days at room temperature. Cells on slides were fixed with increasing concentrations of EtOH and allowed to dry prior to staining. After blocking non-specific binding with normal serum (species same as secondary antibody), sections were incubated with the mixture of following monoclonal antibodies in a humidified chamber at cool room for overnight: (i) anti-human CD38 as plasmablast cell marker, and (ii) anti-BCL-6, IRF-4, BLIMP-1, PAX5 and XBP-1 for transcription factor proteins. After washings, slides were incubated for 1 hr at room temperature in dark with the mixture of secondary antibodies which were raised in different species (with two different fluorochromes, i.e., Alexa Fluor-488 and Alexa Fluor-633). The slides were then rinsed in PBS, counterstained with DAPI for 20 minutes at room temperature, coverslipped with anti-fade fluorescent mounting medium, and sealed with nail polish. The slides were stored in dark at 4° C. To exclude false positives produced by nonspecific binding of the secondary antibody, all of the tissues were treated in the same manner with buffer substituting for the primary antibody. The color of the antibody staining was observed and quantity was analyzed in the tissue sections using iCyte.

[2] = tested on: IgM; test: IgM production in normal PBMC differentiation cultures (ELISA); details: Homo sapiens, read-out: IgM IC50 (nM) Normal (n = 3)
Procedure: Step 1—B cell Activation—day 0 through day 4: Prepare fresh B cell cocktail by adding 50 μg/mL of human transferrin to B cell media. (Iscoves+10% PFBS, 1% P/S, and 5 μg/mL human insulin). […] Five milliliters (1×10^5/ml) of CD19+ B cell were added to each well of a 6 well flat-bottom plate (final cell count=5×10^5/well). Five L (lx)±compound/DMSO was added to each test well (0.1% final DMSO) and incubated at 37° C. for 4 days.
Step 2—Plasmablast Generation—day 4 through day 7: Cells were harvested and counted on the cell counter; an aliquot was removed for flow analysis, the remaining cells were washed with PBS. Prepare fresh B cell cocktail by adding 1 μg/ml of human transferrin to B cell media. […] Add B cell differentiation cocktail (final concentration): recombinant human IL-2 (20 U/mL), IL-10 (50 ng/mL), IL-15 (10 ng/mL), IL-6 (50 ng/mL) to cells. Add fresh B cell cocktail and transfer cells back to the original wells and bring volume back to 5 mL. Five L (1×)±compound/DMSO was added to each test well (0.1% final DMSO) and incubated at 37° C. for 4 days.
Supernatants (from section 8.2.3) were harvested and analyzed by ELISA for IgG and IgM production (ZeptoMetrix Corp. Buffalo, N.Y.).
The data was graphed using GraphPad Prism 5.0 software.
IgM and IgG were measured by ELISA.

[3] = tested on: CD44; test: CD44 expression in B cell differentiation culture (flow cytometry); type: cell-based, human; details: Day 7; for percentage of CD20high/CD44high cells: DMSO 22.2%
Procedure: (§1) Immunophenotyping For Flow Cytometric Analysis: Cells were stained using multicolor direct immunofluorescence stain for flow cytometric analysis. Surface staining was performed before cell fixation and permeabilization. Cells (50 μl; 1×10^6 cells/ml in washing buffer, 2% FBS with 0.1% NaN3 in PBS) were used for each staining. The cells were stained with isotype control mAb ([…]) and multicolor FITC-conjugated anti-CD20 mAb and PE-conjugated anti-CD38 mAb, or PerCP-Cy5.5 conjugated anti-CD44 mAb, PE-conjugated anti-CD83 mAb were used for day 4 activated B cells (CD20+CD38-cells), and day 4 PBs and day 7 PBs (CD20-CD38+), and other staining, analyzed by flow cytometry as per manufacturer's instructions. The intracellular staining of transcription factor proteins (BCL-6, IRF-4, BLIMP-1, PAX-5 and XBP-1) and IgJ was performed according to the manufacturer's recommendations. Flow cytometric analysis was performed with a FACSCanto using FACSDiva 6 (BD Biosciences). For data analysis, Flowjo (Tree Star) software was used.
Using the same B cells in vitro differentiation system, the activity of the test compound on CD44 and CD83 expression in B cell differentiation was further investigated. Multicolor FITC-conjugated anti-CD20 mAb, PerCP Cy5.5-conjugated anti-CD44 mAb and PE-conjugated anti-CD83 mAb are used for day 4 and day 7 cells. The effect of the test compound was evaluated from 3 separate experiments representative of 3 donors.

[4] = tested on: SSc fibroblasts; test: Fibrotic gene expression in SSc skin fibroblasts (real time PCR); type: cell-based, human; details: 24 hours
Procedure: Cell cultures: Human normal and scleroderma skin fibroblasts were cultured in DMEM containing 10% fetal bovine serum (FBS). The cells were maintained in a humidified 5% CO2, 95% air incubator at 37° C. After confluence was reached, the cells were harvested with 0.05% trypsin and subcultured. Cells were used in the 3rd-5th passage.
Experimental design: Cells were grown to 70-80% confluence and placed into quiescent state by a reduction in serum concentration to 0.4% for overnight. The effects of the compound on TGFβ fibrotic effects and on NL and SSc fibrotic gene expression were tested.
Effects of the compound on SSc-FB: SSc fibrobasts were treated with the compound at different concentration and gene expression levels of Collagen 1A1 (COL1), α-smooth muscle actin (α-SMA), fibronectin (FN), matrix metallopeptidase 1 (MMP1), plasminogen activator inhibitor (PAI), and DNA (cytosine-5-)-methyltransferase 1 (Dnmt1) were determined 24 hours later by real time PCR.
Quantitative Real-Time PCR: Total RNA was extracted from cells using RNeasy kit. RNA concentration was measured and 1 ug of RNA was reverse transcribed to cDNA using RT-First strand kit. The cDNA was then amplified using respective primers and Power SYBR Green PCR Master Mix. The amplicon (150-200 bp) was detected by ABI 7500 Real Time PCR System. All the target genes were normalized to GAPDH and relative fold changes were calculated. Each sample was assessed in triplicate.

[5] = tested on: H929 MM cell lines; test: Cell proliferation in lenalidomide-sensitive and resistant H929 MM cells (7-AAD); type: cell-based; details: Homo sapiens, NCI-H929, 120 h, 5 days, read-out: IC50 for inhibition of proliferation
Procedure: CRBN ubiquitination was measured in HEK293T cells, which were transfected with an amino-terminal His-biotin-tagged CRBN construct, then preincubated with compounds for one hour followed by treatment with the MG132 proteasome inhibitor (to arrest degradation of ubiquitinated proteins). Cells were lysed and processed to measure CRBN ubiquitination by SDS-PAGE and immunoblot analysis using an anti-ubiquitin antibody. Cell proliferation studies were conducted in enalidomide-sensitive and refractory multiple myeloma cells. Lenalidomide-resistant or sensitive H929 MM cell lines were treated with Compound IA for 5 days, and then cell proliferation and viability were assessed by 7-aminoactinomycin D (“7-ADD”) staining. T-cell costimulation was measured in purified primary human T cells stimulated using immobilized anti-CD3 antibody in cell culture for 2 days, and cytokine secretion was measured by ELISA.

[6] = tested on: BCL-6, IRF-4, BLIMP-1, PAX5 and XBP-1; test: Transcription factor protein expression by intracellular flow cytometry, normal B cell differentiation; type: cell-based, human
Procedure: as §1
B cells were cultured as described in above and cells were harvested at day 4, day 7 for immunofluoresence staining. The cells were first stained for CD20 and CD38, and after cell permeabilization, stained for BCL-6, IRF-4, BLIMP-1, PAX5 and XBP-1, then were analyzed by gating on whole lymphocytes.

SMILES: O=C1CC[C@H](N2Cc3c(OCc4ccc(CN5CCOCC5)cc4)cccc3C2=O)C(=O)N1 [Test compound, (S)-3-[4-(4-morphlin-4-ylmethylbenzyloxy)-1-oxo-1,3-dihydro-isoindo-2-yl]piperidine-2,6-dione]
- BCL-6 expression [1]: significantly increased
- BLIMP-1 expression [1]: inhibited
- RF-4 expression [1]: inhibited
- BCL-6 expression ([1]; listed as Compound I-S): increased
- BLIMP-1 expression ([1]; listed as Compound I-S): significantly reduced
- RF-4 expression ([1]; listed as Compound I-S): significantly reduced
- IC50 [2]: 0.35 nM
- CD44 mean fluorescence intensity (MFI) [3]: dose-dependently and significantly decreased
- percentage of CD20high/CD44high cells ([3]; 2 nM): 18.4%
- percentage of CD20high/CD44high cells ([3]; 20 nM): 10.1%
- percentage of CD20high/CD44high cells ([3]; 200 nM): 6.6%
- expression of COL1 mRNA [4]: dose dependently reduced
- expression of Dnmt1 [4]: dose dependently reduced
- expression of FN mRNA [4]: dose dependently reduced
- expression of MMP-1 [4]: dose dependently increased
- expression of PAI [4]: dose dependently reduced
- expression of aSMA mRNA [4]: dose dependently reduced
- IC50 ([5]; DMSO-treated subclone): 40 nM
- IC50 ([5]; lenalidomide resistant subclones): 510 to 1580 nM
- IC50 ([5]; parental H929 cell line): 10 nM
- BLIMP-1 protein expression ([6]; Day 4, 20 nM): significantly decreased
- IRF-4 protein expression ([6]; Day 4, 20 nM): significantly decreased
- XBP-1 protein expression ([6]; Day 4, 20 nM): significantly decreased
- BCL-6 protein expression ([6]; Day 7, 20 nM): significantly increased
